Experiments:
[1] = biological target: Gox0644 (Gluconobacter oxydans, UniProt Q5FT75); assay: Coupled-enzyme biotransformation with cofactor regeneration, product determined by NMR (regio- and stereoselectivity); type: biochemical
Description: (§1) Measurement of enzyme activity: NADPH-dependent α-ketocarbonyl reductases were assayed by a routine method used for NAD(P)-linked enzymes by recording the rate of decrease of NADPH at 340 nm (ε = 6.22 mM^-1 x cm^-1)) with substrates at 30 °C. The reaction mixture (1 ml) for reduction of α-ketocarbonyl substrates contained 10 mM substrate, 40 mM potassium phosphate buffer pH 7.0, 0.025 mM NAD(P)H and the enzyme. Reactions were induced by addition of enzyme or substrate. One unit was defined as the amount of enzyme activity catalyzing the conversion of 1 µmol of pyridine nucleotide per min at 30 °C. NMR Analysis of Biotransformation Products: Biotransformations were extracted with equal volumes of CDCl3. and ^13C NMR spectra were recorded on a Bruker Avance 300 DPX spectrometer operating at 300 MHz for ^1H NMR and at 75 MHz for ^13C NMR, respectively. Spectra were processed using Bruker TonSpin 1.3 for Windows software and calibrated to the residual solvent peak of CDCl3 (δH = 7.26 / δC = 77.0).
(§2) Determination of the absolute configuration of the biotransformation product 2-hydroxy-pentan-3-one using chiral NMR shift solvents: Chiral NMR shift reagent (R,R)- and (S,S)-bis-α-methylbenzylamine-para-methyl (BMBA-p-Me) was prepared with small modifications according to the method reported by Kobayashi, Y et al., Tetrahedron Lett. 44: 7489-7491 (2003). In brief, the method of Marshall, J.A. and Mikowski, A. M., Org. Lett. 8:4375-4378 (2006) was used to synthesize 1,3-dibromo-2-methylpropane from 1,3-dihydroxy-2-methylpropane. Diisopropylethylamine (25.5 g), triphenylphosphine (20.1 g) and CBr4 (25.5 g) were sequentially added to a stirring solution of […] in 100 ml CH2Cl2 at 0 °C. The reaction was stirred for 3-4 h at 0 °C and concentrated under reduced pressure to give a green-brown oil. The oil was dissolved in diethyl ether and water (100 ml each) and the aqueous layer was extracted three times with diethyl ether. The organic extracts were combined and washed with water and brine, and dried over MgSO4. The reaction was concentrated under reduced pressure and applied to flash chromatography on silica 60 (230-400 mesh, 100% cyclohexane). Fractions containing the 1,3-dibromo-2-methylpropane product were combined (as judged by Si-TLC [100% cyclohexene]) and concentrated under reduced pressure resulting in a brown-yellow oil. The dibromopropane oil was used for the synthesis of (R,R)- and (S,S)-BMBA-p-Me as described by (Kobayashi, Y. et al., Org. Lett. 4(3):411-414 (2002). The crude oil was distilled by Kugelrohr at 240 °C to give crude BMPA-p-Me (yellow oil). BMBA-p-Me was purified by HPLC using a C18 column (Waters Xterra, 250 x 4.6 mm) at a flow rate of 0.8 ml min^-1 and a 40 min linear gradient of 50-100 % MeOH at ambient temperature. Fractions were concentrated under reduced pressure and BMBA-p-Me was identified by ^1H-NMR (colorless hygroscopic oil).
(§3) Approximately 7.5 mg of the extracted product 2-hydroxy-pentan-3-one was added to 15 mg (R,R)- or (S,S)-BMBA-p-Me (dissolved in 200-300 µl CDCl3) and analyzed by ^13C NMR with the readout adjusted to 0.001 ppm/point (sw = 239 ppm, td = 512k) (Fiorentino, A. et al., Tetrahedron., 62:8952-8958 (2006)). The absolute configuration was determined based on the sign of ΔδRR-SS (δ(R,R)-BMBA-p-Me - δ(S,S)-BMBA-p-Me) for the α-carbons adjacent to the hydroxymethine unit as formulated in the following model shown in Scheme 3 (valid for saturated secondary alcohols of acyclic and cyclic compounds): [drawing 7]
(§4) Cofactor regeneration: A prerequisite for the production of α-hydroxycarbonyl compounds is the regeneration of the expensive coenzymes and the stability of the protein catalysts. By coupling two coenzyme-dependent enzyme reactions, NADPH can be continuously regenerated. […]

[2] = biological target: T1, Gox1615 (Gluconobacter oxydans, UniProt Q5FQJ0); assay: as above; type: biochemical
T1 sequence (Q5FQJ0 1-332): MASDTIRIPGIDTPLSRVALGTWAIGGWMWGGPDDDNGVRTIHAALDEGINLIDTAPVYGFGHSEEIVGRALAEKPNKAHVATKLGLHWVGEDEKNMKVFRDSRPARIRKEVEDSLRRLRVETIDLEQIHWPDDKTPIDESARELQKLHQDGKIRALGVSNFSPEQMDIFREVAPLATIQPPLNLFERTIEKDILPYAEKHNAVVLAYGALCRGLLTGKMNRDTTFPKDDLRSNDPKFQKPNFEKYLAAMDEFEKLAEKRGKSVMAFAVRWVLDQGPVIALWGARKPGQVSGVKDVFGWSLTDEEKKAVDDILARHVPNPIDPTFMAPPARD
Description: as §1, §2, §3, §4

[3] = NMR with chiral solvent BMBA-p-Me

For `CCC(=O)C(C)=O` [2,3-pentanedione], the “Product (stereoselective reduction)” value [1, 3] was 2R-hydroxy-pentan-3-one, the “Product (regioselective reduction)” value ([1]; determined by NMR analysis) was 2-hydroxy-pentan-3-one and the “Product (stereoselective reduction)” value [2, 3] was 2S-hydroxy-pentan-3-one. The “Product (regioselective reduction)” value ([2]; determined by NMR analysis) was 2-hydroxy-pentan-3-one.
